The values below come from article PMC3427755 (Organic & biomolecular chemistry, 2012).

Where two headings read alike, the source gives them in different places.

One assay concerns the target B-Raf^V600E (Homo sapiens, UniProt P15056, V600E). Briefly: In vitro B-Raf kinase assay. Type of assay: biochemical. The note with it: for Inhibition rate B-Raf^V600E: [I]=1μM.
The target in a further assay is B-Raf^WT (Homo sapiens, UniProt P15056). Briefly: In vitro B-Raf kinase assay. Type of assay: biochemical. To be noted: for Inhibition rate (%) B-Raf: 2μM of compound; for Inhibition rate B-Raf: [I]=1μM; for inhibition at 2 µM: read-out: Inhibition rate (%) B-Raf.
B-Raf^WT, sequence (P15056 433-726): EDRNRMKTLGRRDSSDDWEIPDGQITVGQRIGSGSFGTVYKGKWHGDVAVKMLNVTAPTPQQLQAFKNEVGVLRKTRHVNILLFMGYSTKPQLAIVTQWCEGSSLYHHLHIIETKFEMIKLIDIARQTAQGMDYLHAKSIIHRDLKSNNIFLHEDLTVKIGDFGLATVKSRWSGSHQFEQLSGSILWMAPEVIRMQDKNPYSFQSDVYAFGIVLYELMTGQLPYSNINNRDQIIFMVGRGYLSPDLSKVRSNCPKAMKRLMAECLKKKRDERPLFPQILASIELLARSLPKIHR
In assay [1] the test system is A375 (B-Raf^V600E) malignant melanoma cells. Briefly: Anti-proliferation activity, A375 melanoma cells. The assay is classed as cell-based, human. To be noted: for Tumor growth inhibition rate A375(B-Raf^V600E): [I]=10μM.
Where [2] appears, read: read-out: Inhibition rate (%) B-Raf^V600E, 2μM of compound.
The mark [3] stands for this setting: read-out: Inhibition rate (%) B-Raf^V600E.

B-Raf^V600E, sequence (P15056 433-726 V600E): as the sequence (P15056 433-726) above, with V168E counted along it

Regarding `O=C1NC(=O)C(=Cc2ccc(-c3cc(C(F)(F)F)ccc3Cl)o2)S1` [Compound 19k, 5-[5-(2-chloro-5-trifluomethyl)-furan-2ylmethylene]-thiazolidine-2,4-dione], at B-Raf^V600E (2μM of compound), the “Inhibition rate (%) B-Raf^V600E” value is 37% n.d. Further, the “Inhibition rate (%) B-Raf” value on B-Raf^WT came out at 18% n.d.

On to `O=C1NC(=O)C(=Cc2ccc(-c3ccccc3[N+](=O)[O-])o2)S1` [Compound 19a, 5-[5-(2-nitro-phenyl)-furan-2ylmethylene]-thiazolidine-2,4-dione], for which the inhibition (commonly the change of the read-out against control, counted positive when it falls) at 2 µM at B-Raf^V600E (setting [2]) came out at 7%.

Turning to `O=C1NC(=S)NC(=O)C1=Cc1ccc(-c2ccc(Cl)cc2[N+](=O)[O-])o1` [Compound 22n, 5-[5-(2-nitro-4-chloro)-furan-2ylmethylene]-2-thioxo-dihydro-pyrimidine-4,6-dione], at B-Raf^V600E, the “Inhibition rate B-Raf^V600E” value is 22%. Further, on B-Raf^WT, the “Inhibition rate B-Raf” value was found to be 20%.

Regarding `O=C1Nc2cc(Cl)ccc2C1=Cc1ccc(-c2cc(C(F)(F)F)ccc2Cl)o1` [Compound 17f, 3-[5-(2-chloro-5-trifluomethyl)-furan-2-ylmethylene]-6-chloro-1,3-dihydro-indol-2-one], the “Inhibition rate (%) B-Raf^V600E” value on B-Raf^V600E (2μM of compound) was 34% n.d.

In the case of `Cc1ccc(-c2ccc(C=C3SC(=O)NC3=O)o2)cc1` [Compound 19g, 5-[5-(4-methyl-phenyl)-furan-2ylmethylene]-thiazolidine-2,4-dione], the inhibition at 2 µM on B-Raf^V600E (setting [2]) was 41%.

For the molecule `O=C1Nc2cc(Cl)ccc2C1=Cc1ccc(-c2cccc(C(F)(F)F)c2)o1` [Compound 17b, 3-[5-(3-trifluomethyl-phenyl)-furan-2-ylmethylene]-6-chloro-1,3-dihydro-indol-2-one], the “Inhibition rate (%) B-Raf^V600E” value on B-Raf^V600E (2μM of compound) worked out at 38% n.d.

Turning to `O=C1NC(=O)C(=Cc2ccc(-c3ccc([N+](=O)[O-])cc3)o2)S1` [Compound 19c, 5-[5-(4-nitro-phenyl)-furan-2ylmethylene]-thiazolidine-2,4-dione], the inhibition at 2 µM at B-Raf^V600E (setting [2]) was determined as 48%.

As to `O=C1NC(=S)NC(=O)C1=Cc1ccc(-c2ccc(Cl)cc2C(F)(F)F)o1` [Compound 22o, 5-[5-(2-trifluomethyl-4-chloro)-furan-2ylmethylene]-2-thioxo-dihydro-pyrimidine-4,6-dione], the “Inhibition rate B-Raf^V600E” value on B-Raf^V600E is recorded as 49%. For the same molecule, the “Inhibition rate B-Raf” value on B-Raf^WT came to 24%.

On to `O=C1NC(=S)NC(=O)C1=Cc1ccc(-c2cc(C(F)(F)F)ccc2Cl)o1` [Compound 22k, 5-[5-(2-chloro-5-trifluomethyl)-furan-2ylmethylene]-2-thioxo-dihydro-pyrimidine-4,6-dione], for which, in assay [1], the “Tumor growth inhibition rate A375(B-Raf^V600E)” value is 18.3.

As for `O=C1Nc2ccc(Cl)cc2C1=Cc1ccc(-c2cccc(C(F)(F)F)c2)o1` [Compound 17c, 3-[5-(3-trifluomethyl-phenyl)-furan-2-ylmethylene]-5-chloro-1,3-dihydro-indol-2-one], at B-Raf^V600E (2μM of compound), the “Inhibition rate (%) B-Raf^V600E” value came out at 23% n.d. The “Inhibition rate (%) B-Raf” value at B-Raf^WT was determined as 17% n.d.

As for `O=C1C(=Cc2ccc(-c3cccc(C(F)(F)F)c3)o2)Cc2ccccc21` [Compound 16b, 2-[5-(3-trifluomethyl-phenyl)-furan-2-ylmethylene]-indan-1-one], the “Inhibition rate (%) B-Raf^V600E” value at B-Raf^V600E (2μM of compound) was 22% n.d.

With `O=C1C(=Cc2ccc(-c3ccc(Br)cc3)o2)Cc2ccccc21` [Compound 16f, 2-[5-(4-bromo-phenyl)-furan-2-ylmethylene]-indan-1-one], the inhibition at 2 µM at B-Raf^V600E (setting [2]) is 42%.

On to `O=C1NC(=O)C(=Cc2ccc(-c3ccc4ccccc4c3)o2)S1` [Compound 19j, 5-[5-(2-naphthyl)-furan-2ylmethylene]-thiazolidine-2,4-dione], for which the inhibition at 2 µM on B-Raf^V600E (setting [2]) was 51%.

`O=C1C(=Cc2ccc(-c3ccc([N+](=O)[O-])cc3)o2)Cc2ccccc21` [Compound 16d, 2-[5-(4-nitro-phenyl)-furan-2-ylmethylene]-indan-1-one]: the inhibition at 2 µM at B-Raf^V600E (setting [2]) came to 34%.

`O=C1NC(=S)NC(=O)C1=Cc1ccc(-c2cccc(C(F)(F)F)c2)o1` [Compound 22l, 5-[5-(3-trifluomethyl-phenyl)-furan-2ylmethylene]-2-thioxo-dihydro-pyrimidine-4,6-dione]: the “Inhibition rate B-Raf^V600E” value at B-Raf^V600E is recorded as 45%. The “Inhibition rate B-Raf” value on B-Raf^WT came out at 30%.

For the molecule `O=C1C(=Cc2ccc(-c3cccc(C(F)(F)F)c3)o2)Cc2cc(Cl)ccc21` [Compound 16c, 2-[5-(3-trifluomethyl-phenyl)-furan-2-ylmethylene]-5-chloro-indan-1-one], the “Inhibition rate (%) B-Raf^V600E” value at B-Raf^V600E (0.5μM of compound) is 42%. In addition, the “Tumor growth inhibition rate A375(B-Raf^V600E)” value in assay [1] turned out to be 3.2.

As to `O=C1Nc2ccccc2C1=Cc1ccc(-c2cc(C(F)(F)F)ccc2Cl)o1` [Compound 17d, 3-[5-(2-chloro-5-trifluomethyl)-furan-2-ylmethylene]-1,3-dihydro-indol-2-one], the “Inhibition rate (%) B-Raf^V600E” value at B-Raf^V600E (2μM of compound) was 23% n.d.

For the molecule `COc1cccc(-c2ccc(C=C3SC(=O)NC3=O)o2)c1` [Compound 19b, 5-[5-(3-methoxy-phenyl)-furan-2ylmethylene]-thiazolidine-2,4-dione], the inhibition at 2 µM at B-Raf^V600E (setting [2]) is 34%.

As to `CC(C)(C)c1ccc(-c2ccc(C=C3SC(=O)NC3=O)o2)cc1` [Compound 19i, 5-[5-(4-tert-butyl-phenyl)-furan-2ylmethylene]-thiazolidine-2,4-dione], the inhibition at 2 µM at B-Raf^V600E (setting [2]) was 34%; at B-Raf^WT it was 17%.

In the case of `COc1ccc(-c2ccc(C=C3SC(=O)NC3=O)o2)cc1` [Compound 19h, 5-[5-(4-methoxy-phenyl)-furan-2ylmethylene]-thiazolidine-2,4-dione], the inhibition at 2 µM turned out to be 41% at B-Raf^V600E (setting [2]) and 3% at B-Raf^WT.

For the molecule `O=C1NC(=S)NC(=O)C1=Cc1ccc(-c2ccccc2[N+](=O)[O-])o1` [Compound 22a, 5-[5-(2-nitro-phenyl)-furan-2ylmethylene]-2-thioxo-dihydro-pyrimidine-4,6-dione], the inhibition at 0.5 µM on B-Raf^V600E (setting [3]) came out at 48%. Besides, the inhibition at 2 µM on B-Raf^V600E (setting [3]) was determined as 61%; at B-Raf^WT, 38%.

Turning to `O=C1Nc2ccc(Cl)cc2C1=Cc1ccc(-c2cc(C(F)(F)F)ccc2Cl)o1` [Compound 17e, 3-[5-(2-chloro-5-trifluomethyl)-furan-2-ylmethylene]-5-chloro-1,3-dihydro-indol-2-one], the “Inhibition rate (%) B-Raf^V600E” value on B-Raf^V600E (2μM of compound) was 34% n.d.

Regarding `O=C1Nc2ccccc2C1=Cc1ccc(-c2cccc(C(F)(F)F)c2)o1` [Compound 17a, 3-[5-(3-trifluomethyl-phenyl)-furan-2-ylmethylene]-1,3-dihydro-indol-2-one], the “Inhibition rate (%) B-Raf^V600E” value on B-Raf^V600E (2μM of compound) is given as 34% n.d.

With `O=C1NC(=S)NC(=O)C1=Cc1ccc(-c2ccc(Cl)c(C(F)(F)F)c2)o1` [Compound 22p, 5-[5-(3-trifluomethyl-4-chloro)-furan-2ylmethylene]-2-thioxo-dihydro-pyrimidine-4,6-dione], at B-Raf^V600E, the “Inhibition rate B-Raf^V600E” value worked out at 48%. Also, the “Inhibition rate B-Raf” value on B-Raf^WT stood at 37%.

`O=C1C(=Cc2ccc(-c3ccc(Cl)cc3)o2)Cc2ccccc21` [Compound 16e, 2-[5-(4-chloro-phenyl)-furan-2-ylmethylene]-indan-1-one]: the inhibition at 0.5 µM at B-Raf^V600E (read-out: Inhibition rate (%) B-Raf^V600E, 0.5μM of compound) was determined as 41%. Further, at B-Raf^V600E (setting [2]), the inhibition at 2 µM is greater than 50%. For the same molecule, in assay [1] (Homo sapiens, A-375, read-out: Tumor growth inhibition rate A375(B-Raf^V600E)), the inhibition at 10 µM is 5.2%.

Take `O=C1C(=Cc2ccc(-c3cc(C(F)(F)F)ccc3Cl)o2)Cc2ccccc21` [Compound 16g, 2-[5-(2-chloro-5-trifluomethyl)-furan-2-ylmethylene]-indan-1-one]: the “Inhibition rate (%) B-Raf^V600E” value on B-Raf^V600E (2μM of compound) was found to be 44% n.d.
